Measurements as given in the supplement of paper PMC4862054.

What was measured:
Conditions in all cases: incubation time: 72 h
[1] = system: MDA-MB-453; test: normalised viability (% of control), CellTiter-Blue; higher = more viable cells (about 100 = DMSO control)
Protocol: (§1)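 DSRT, CellTiter-Blue viability, 72 h incubation. Signal is normalised to DMSO and benzethonium chloride controls. Value is the normalised response at dose 9.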

[2] = system: CAL-148; test: as above
Protocol: as §1

[3] = system: CAL-85-1; test: as above
Protocol: as §1

[4] = system: DU-4475; test: as above
Protocol: as §1

[5] = system: CAL-51; test: as above
Protocol: as §1

[6] = system: HDQ-P1; test: as above
Protocol: as §1

[7] = system: Hs578T; test: normalised response (% of control), CellTox Green; higher = less cell death (100 = DMSO, 0 = benzethonium chloride kill control)
In short: (§2)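 In 384-well plates holding compound at 5 concentrations in 10-fold steps over a 10,000-fold range specific to each compound, breast cancer cell lines were seeded as 20 µl suspension and incubated 72 h. CellTox Green fluorescence was measured at 485/520 nm, after which CellTiter-Glo luminescence was measured following 10 min at room temperature. Plate signals were normalised to 0.1 % DMSO (100) and a positive kill control (0), and each value is the normalised signal at a single concentration.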

[8] = system: HCC1599; test: as above
In short: as §2

[9] = system: BT-549; test: as above
In short: as §2

[10] = system: CAL-148; test: as above
In short: as §2

[11] = system: MDA-MB-453; test: normalised response (% of control), CellTiter-Glo; higher = more viable cells (100 = DMSO, 0 = benzethonium chloride kill control)
In short: as §2

[12] = system: Hs578T; test: as above
In short: as §2

[13] = system: HCC1937; test: as above
In short: as §2

[14] = system: MFM-223; test: as above
In short: as §2

[15] = system: MDA-MB-231; test: as above
In short: as §2

[16] = system: HCC1599; test: as above
In short: as §2

[17] = system: MDA-MB-468; test: as above
In short: as §2

[18] = system: MDA-MB-436; test: as above
In short: as §2

[19] = system: BT-549; test: as above
In short: as §2

[20] = system: CAL-148; test: as above
In short: as §2

[21] = system: CAL-85-1; test: as above
In short: as §2

[22] = system: DU-4475; test: as above
In short: as §2

[23] = system: CAL-120; test: as above
In short: as §2

[24] = system: MCF-10A; test: as above
In short: as §2

[25] = system: CAL-51; test: as above
In short: as §2

[26] = system: BT-474; test: as above
In short: as §2

[27] = system: HCC1143; test: as above
In short: as §2

[28] = system: HDQ-P1; test: as above
In short: as §2

[29] = system: SK-BR-3; test: as above
In short: as §2

Row | Compound | normalised viability [1] | normalised viability [2] | normalised viability [3] | normalised viability [4] | normalised viability [5] | normalised viability [6] | normalised response [7] | normalised response [8] | normalised response [9] | normalised response [10] | normalised response [11] | normalised response [12] | normalised response [13] | normalised response [14] | normalised response [15] | normalised response [16] | normalised response [17] | normalised response [18] | normalised response [19] | normalised response [20] | normalised response [21] | normalised response [22] | normalised response [23] | normalised response [24] | normalised response [25] | normalised response [26] | normalised response [27] | normalised response [28] | normalised response [29]
1 | CCC1=C[C@@H]2CN(C1)Cc1c([nH]c3ccccc13)[C@@](C(=O)OC)(c1cc3c(cc1OC)N(C)[C@H]1[C@@](O)(C(=O)OC)[C@H](OC(C)=O)[C@]4(CC)C=CCN5CC[C@]31[C@@H]54)C2 [Vinorelbine] (10000 nM) | 29.4% | 30.3% | 44.2% | 9.67% | 11.5% | 38.9% | -16.6% | 70.8% | 43.6% | 80.7% | 53.8% | 15.9% | 69.8% | 39.6% | 40.1% | 4.45% | 18.1% | 24.5% | 36.1% | 49.6% | 48.9% | 40.4% | 54% | 78.3% | 27.5% | 48.2% | 55.3% | 70.6% | 14.8%
2 | COc1cc([C@@H]2c3cc4c(cc3[C@@H](O[C@@H]3O[C@@H]5CO[C@@H](C)O[C@H]5[C@H](O)[C@H]3O)[C@H]3COC(=O)[C@H]23)OCO4)cc(OC)c1O [Etoposide] (10000 nM) | 61.4% | 31.7% | 63.1% | 4.57% | 18.4% | 62.6% | 88.2% | 91% | 85.4% | 49.6% | 142% | 67.3% | 67.5% | 90.8% | 70.8% | 11.8% | 38.5% | 36.6% | 35.9% | 39.9% | 49.8% | 19.6% | 73.7% | 87.1% | 23.9% | 44.1% | 38.8% | 82.3% | 15.8%
3 | CN(N=O)C(=O)N[C@@H](C=O)[C@@H](O)[C@H](O)[C@H](O)CO [Streptozocin] (10000 nM) | 99.1% | 105% | 91.1% | 92.6% | 101% | 122% | 136% | 98.6% | 96.1% | 107% | 95.6% | 109% | 105% | 106% | 98% | 92.5% | 104% | 97.2% | 97.7% | 107% | 98.5% | 96.1% | 109% | 110% | 91.8% | 100% | 106% | 102% | 108%
